From patent US20120295866A1, “Synthesis And Use Of Glycoside Pro-Drug Analogs” (Nutek Pharma Ltd., priority 2011, published 2012)
Values after ≈ are worked out from the molar mass of the structure shown. “Also recorded” adds a separate entry of the source.

How the values were obtained:
rats = assay: Clinical observations of rats during administration of propofol analogs in the pharmacokinetics study; settings: for Clinical Observation: recovered at: time post-10 min i.v. infusion, 0.168 mmol/Kg
Experimental: (§1) Blood samples were to be taken pre-dose, during dose and post dose at designated intervals, with the blood quickly processed and stored at −70° C. until analysis.
(§2) Formulations were prepared on the morning of the dosing day and each was passed through a 0.22 μm filter prior to being administered to animals. A standard dose of 0.168 mmol/Kg per analog was administered to each of the rats. […] Analog stability in the formulations was verified by preparing each formulation and harvesting 200 μL aliquots at 0, 1, 2 and 8 hr while standing at room temperature. After harvesting, each sample was immediately frozen in dry ice until analysis; concentrations of test compounds in the samples were examined by HPLC-UV.
(§3) The animals were surgically prepared with indwelling cannula, double cannulation in carotid artery and jugular vein for i.v. infusion. The anesthetic pentobarbital was used during the surgery, and the animals were allowed to recover 3-5 days after surgery before the formulation was dosed. The dose formulation was administered intravenously via the jugular vein cannula. The 16.8 μmol/mL formulation was administered i.v. at a rate of 1 mL/Kg/min for 10 min.

[1] = Pharmacokinetics: concentration of prodrug (or propofol) in rat plasma after intravenous infusion, LC/MS/MS; settings: for Mean concentration of prodrug and propofol in rat plasma after intravenous infusion administration: analyte = administered compound; for AUC(0-inf) / AUC(0-t) / Cmax / MRT inf / Tmax / half-life / Vd / clearance: male, Sprague-Dawley, rat, plasma, iv, 0.168 mmol/Kg
Experimental: as §1, §2, §3
(§4) Approximately 0.20 mL blood was collected at each designated time point from carotid artery via a catheter. A total of 12 plasma samples were taken from each animal: 1 pre-dose; 2 during the dose (5 into the 10 min infusion and one just prior termination of the 10 min infusion) and 9 post-infusion at 2, 5, 15, 30 min and 1, 2, 3, 4, and 6 hr post-dose. All blood samples were transferred into plastic microcentrifuge tubes containing 5 μL of K2-EDTA (0.5M) as anti-coagulant and placed on ice until processed for plasma. Blood samples were processed for plasma by centrifugation at approximately 5° C. Plasma samples were then stored in 1.5 mL tubes, quick frozen over dry ice and kept at −70±10° C. until LC/MSMS analysis.
(§5) For each, a minimum of 6 standard point curve runs in duplicates, and minimum of 5 standards were back calculated to within ±20% of their nominal concentrations. The LLOQ of each test article in plasma was established and 6 QC samples were included in assay runs of samples to ensure assay performance.
(§6) Plasma concentration versus time data was analyzed by non-compartmental approaches using the WinNonlin software program (version 5.2, Pharsight, Mountain View, Calif.) and the pharmacokinetic parameters T½, CL, Vss, AUC(0-t), AUC(0-inf), MRT, and graphs of plasma concentration versus time calculated for each.

[2] = Pharmacokinetics: concentration of propofol in rat plasma after intravenous infusion of each pro-drug, LC/MS/MS; settings: for Mean Concentration of Propofol in Rat Plasma After Intravenous Administration: analyte propofol from the administered compound; for pro-drug efficiency, release of propofol: releasing the propofol in a matter of minutes after infusion, rat
Experimental: as §1, §2, §3, §4, §5, §6

[3] = Solubility determination of propofol analogs in D2O by 1H NMR with DSS internal standard; settings: for solubility: D2O, water, thermodynamic from solid
Experimental: Thus the soapy-like solutions obtained were diluted until opalescent and diluted further until the opalescence visually disappeared.

Row | SMILES | Clinical Observation: recovered at (rats) | Mean concentration of prodrug and propofol in rat plasma after intravenous infusion administration ([1]; Time 0 h (pre-dose)) | Mean concentration of prodrug and propofol in rat plasma after intravenous infusion administration ([1]; Time 0.2 h) | Mean concentration of prodrug and propofol in rat plasma after intravenous infusion administration ([1]; Time 0.25 h) | Mean concentration of prodrug and propofol in rat plasma after intravenous infusion administration ([1]; Time 0.417 h) | Mean concentration of prodrug and propofol in rat plasma after intravenous infusion administration ([1]; Time 0.667 h) | Mean concentration of prodrug and propofol in rat plasma after intravenous infusion administration ([1]; Time 1.166 h) | Mean concentration of prodrug and propofol in rat plasma after intravenous infusion administration ([1]; Time 2.166 h) | Mean concentration of prodrug and propofol in rat plasma after intravenous infusion administration ([1]; Time 3.166 h) | Mean concentration of prodrug and propofol in rat plasma after intravenous infusion administration ([1]; Time 4.166 h) | Mean concentration of prodrug and propofol in rat plasma after intravenous infusion administration ([1]; Time 6.166 h) | Mean Concentration of Propofol in Rat Plasma After Intravenous Administration ([2]; Time 0 h (pre-dose)) | pro-drug efficiency, release of propofol [2] | solubility [3] | AUC(0-inf) [1] | AUC(0-t) [1] | Cmax [1] | MRT inf [1] | Tmax [1] | half-life [1] | also measured
1 | CC(C)c1cccc(C(C)C)c1OC(=O)OCCO[C@@H]1O[C@H](CO)[C@@H](O)[C@H](O)[C@H]1O [Compound 9] | recovered at about 30 min | BQL | BQL | BQL | BQL | BQL | BQL | BQL | BQL | BQL | BQL | BQL | very efficient pro-drugs | 9.4 mM (≈ 4030 µg/mL) |  |  |  |  |  |  | Mean concentration of prodrug and propofol in rat plasma after intravenous infusion administration ([1]; Time 0.083 h (during 10 min infusion)): BQL; Mean concentration of prodrug and propofol in rat plasma after intravenous infusion administration ([1]; Time 0.167 h (end of 10 min infusion)): BQL
2 | CC(C)c1cccc(C(C)C)c1OC(=O)OCCCO[C@@H]1O[C@H](CO)[C@@H](O)[C@H](O)[C@H]1O [Compound 12] | recovered at about 30 min | BQL | BQL | BQL | BQL | BQL | BQL | BQL | BQL | BQL | BQL | BQL | very efficient pro-drugs | 5.5 mM (≈ 2430 µg/mL) | 0.00122 µM·h | 0.000773 µM·h | 0.00678 µM | 6 min | 10.2 min | 3.6 min | Mean Concentration of Propofol in Rat Plasma After Intravenous Administration ([2]; Time 4.166 h): BQL; Mean Concentration of Propofol in Rat Plasma After Intravenous Administration ([2]; Time 6.166 h): BQL
3 | CC(C)c1cccc(C(C)C)c1OC(=O)NCCO[C@@H]1O[C@H](CO)[C@@H](O)[C@H](O)[C@H]1O [Compound 17] |  | BQL |  |  |  |  |  |  |  |  |  | BQL |  | 1.6 mM (≈ 684 µg/mL) | 71.8 µM·h | 61.6 µM·h | 313 µM | 16.6 min | 10.2 min | 26.2 min | Clinical Observation (adverse findings, individual rats) (rats; times post-10 min infusion, vehicle 10% Tween80, cloudy): died at 15 min; also recorded: died at 1.5 h from hematuria; Vd [1]: 0.657 L/kg; clearance [1]: 39.1 mL/min/kg; Mean Concentration of Propofol in Rat Plasma After Intravenous Administration ([2]; Time 2.166 h): BQL; Mean Concentration of Propofol in Rat Plasma After Intravenous Administration ([2]; Time 3.166 h): BQL; Mean Concentration of Propofol in Rat Plasma After Intravenous Administration ([2]; Time 4.166 h): BQL; Mean Concentration of Propofol in Rat Plasma After Intravenous Administration ([2]; Time 6.166 h): BQL; water solubility (in words) ([3]; reason for cosolvent in the dose formulation): poor water solubility
4 | CC(C)c1cccc(C(C)C)c1OC(=O)OCCO[C@@H]1O[C@H](CO)C(O[C@H]2O[C@H](CO)[C@@H](O)[C@H](O)[C@H]2O)[C@H](O)[C@H]1O (some centres unmarked) [Compound 24] | recovered at about 30 min | BQL |  |  |  |  |  | BQL |  | BQL | BQL | BQL | very efficient pro-drugs | > 20 mM | 0.791 µM·h | 0.786 µM·h | 8.1 µM | 12.4 min | 8.4 min | 53.2 min | Vd [1]: 120 L/kg; clearance [1]: 5800 mL/min/kg
